# From patent US6730700B2, “3,4,5,-trisubstituted aryl nitrone compounds and pharmaceutical compositions containing the same” (Renovis, Inc., priority 1998, dated 2004)
# Key:
# [1] = target: T1, COX-2 derived from sheep placenta (Ovis aries, UniProt P79208); test: Inhibition of COX-2 (arachidonic acid incubation, PGE2 formation); conditions: 300 μM; PGE2 formation by spectrophotometric quantitation of malondialdehyde
# T1 sequence (P79208 17-603): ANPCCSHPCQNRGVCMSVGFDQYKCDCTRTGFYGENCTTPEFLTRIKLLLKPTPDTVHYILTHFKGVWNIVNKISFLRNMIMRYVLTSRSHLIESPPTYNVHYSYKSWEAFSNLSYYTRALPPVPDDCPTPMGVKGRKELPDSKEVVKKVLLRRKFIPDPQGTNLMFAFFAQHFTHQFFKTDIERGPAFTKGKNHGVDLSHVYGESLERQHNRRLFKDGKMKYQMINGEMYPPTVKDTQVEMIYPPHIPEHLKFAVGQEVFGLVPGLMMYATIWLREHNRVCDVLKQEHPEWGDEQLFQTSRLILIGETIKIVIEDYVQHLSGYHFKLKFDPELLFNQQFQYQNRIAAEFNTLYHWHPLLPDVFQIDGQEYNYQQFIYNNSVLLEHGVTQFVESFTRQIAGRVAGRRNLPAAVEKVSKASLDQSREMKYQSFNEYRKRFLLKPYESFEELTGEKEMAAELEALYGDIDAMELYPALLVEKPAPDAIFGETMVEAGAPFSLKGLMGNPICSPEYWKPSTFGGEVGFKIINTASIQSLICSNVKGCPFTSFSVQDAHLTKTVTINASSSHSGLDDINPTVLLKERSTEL
# Method: (§1) The inhibition of COX-1 was measured by incubating arachidonic acid with COX-1 derived from ram seminal vesicles. The inhibition of COX-2 was measured by incubation of arachidonic acid with COX-2 derived from sheep placenta. […] In each assay, the formation of prostaglandin E2 (PGE2) was measured by spectrophotometric quantitation of malondialdehyde.
# [2] = target: T2, COX-1 derived from ram seminal vesicles (Ovis aries, UniProt P05979); test: Inhibition of COX-1 (arachidonic acid incubation, PGE2 formation); conditions: 300 μM; PGE2 formation by spectrophotometric quantitation of malondialdehyde
# T2 sequence (P05979 25-600): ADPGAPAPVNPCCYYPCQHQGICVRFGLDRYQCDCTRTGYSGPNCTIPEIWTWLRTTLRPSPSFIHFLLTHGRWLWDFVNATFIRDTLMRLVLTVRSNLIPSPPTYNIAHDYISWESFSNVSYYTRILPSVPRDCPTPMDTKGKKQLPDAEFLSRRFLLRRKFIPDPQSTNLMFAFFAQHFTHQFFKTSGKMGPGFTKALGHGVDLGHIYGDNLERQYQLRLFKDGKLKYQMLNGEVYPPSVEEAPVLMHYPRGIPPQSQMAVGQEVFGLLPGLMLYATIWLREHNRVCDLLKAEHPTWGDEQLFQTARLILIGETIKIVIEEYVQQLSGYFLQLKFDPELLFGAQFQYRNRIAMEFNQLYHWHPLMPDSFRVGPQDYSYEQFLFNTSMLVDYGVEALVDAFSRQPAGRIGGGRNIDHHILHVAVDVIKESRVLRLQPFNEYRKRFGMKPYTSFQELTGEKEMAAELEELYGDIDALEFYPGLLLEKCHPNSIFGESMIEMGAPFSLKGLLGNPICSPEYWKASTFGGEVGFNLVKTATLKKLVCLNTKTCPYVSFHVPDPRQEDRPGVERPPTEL
# Method: as §1
# [3] = system: adjuvant-induced footpad edema in rats; test: Adjuvant assay (adjuvant-induced footpad edema); assay type: in vivo, rat; conditions: Male Lewis rats, 3 mg/kg po, dosing day 14 to day 21 post-adjuvant
# Method: See, for example, […], “Rat Adjuvant Arthritis A Model of Chronic Inflammation,” Pharmocoloigal Methods in the Control of Inflammation, 363-380 (1989) and references cited therein In this assay, Male Lewis rats weighing between 180-220 g were lightly anesthetized with an ip injection of 30 mg/kg of sodium pentobarbital (50 mg/mL). Desiccated Mycobacterium butyrium (Difco, 20 mg/mL) suspended in mineral oil was injected (50 μL) at both sides of the base of the tail under the skin A line was tattooed on both rear paws at 5 mm above the angle of the ankle The paw volumes, under the line, were measured by volume displacement using a plethysmometer (Ugo Basile) at the day of adjuvant injection (day 0) and on day 14 On day 14, animals with paw volumes equal to the mean of paw volumes ±SD were randomized into treatment groups. Rats which fell outside ±1 SD were not used in the experiment.
Compound,inhibition of COX-2 [1],inhibition of COX-1 [2],paw volume as compared to vehicle controls [3]
"CC(=O)Oc1c(C(C)(C)C)cc(/C=[N+](\[O-])C(C)(C)C)cc1C(C)(C)C [Example 1, α-(4-Acetoxy-3,5-di-tert-butylphenyl)-N-tert-butylnitrone]",did not significantly affect,did not significantly affect,
COc1ccc2c(c1)c(CC(=O)O)c(C)n2C(=O)c1ccc(Cl)cc1 [indomethacin],,,significantly reduced
